Experiments:
Mouse splenocytes = assay: XTT cell viability assay, PHA-stimulated splenocytes; assay type: cell-based; conditions: 72 hours
Procedure: Cell viability was assessed by the 2,3 bis [2-Methoxy-4-nitro-5-sulfophenyl]-2H-tetrazolium-5-carboxanilide (XTT) assay (Biological Industries, Kibbutz Beit Hemeek, Israel), which measures the reduction of a tetrazolium component (XTT) into soluble formazan product by the mitochondria of viable cells. The intensity of the dye obtained is proportional to the number of metabolic active cells. On the day of measurement, cells were washed and XTT was added according to the manufacturer's instructions. Plates were incubated at 37° C. for 2-5 hours. The absorbance was read at 450 nm.
Mouse splenocytes were removed and spleenocytes were plated (250,000 cell/well) in DMEM+10% FCS+P/S+Q and […] Phytohaemaglutinin (PHA), in the presence of elevated concentrations (25-400 nM) of RAM-0 (Compound 1), RAM-1 (Compound 4), RAM-2 (Compound 2) or RAM-3 (Compound 3) for 72 hours. Cells cultured without PHA served as control. Control mice at zero are mice splenocytes with PHA stimulation.
Following incubation, cell viability was determined by XTT assay, as described above.

pre-rRNA [1] = assay: Q-RT-PCR of pre-rRNA in PHA-stimulated splenocytes of naive mice; assay type: cell-based; conditions: 72 hours, 25 to 400 nM
Procedure: RNA samples from similar cultures were also prepared and tested by Q-RT-PCR for pre-rRNA expression levels as described in Example herein below.
(§1) RNA Extraction: For in vivo experiments spleens from EAE mice were isolated at day 17 post immunization and splenocytes were re-stimulated for 72 h hours in the presence of 5.0 μg/ml MOG35-55. For in-vitro experiments spleens from intact mice were isolated and splenocytes were stimulated with for 72 h in the presence of PHA. RNA was extracted from splenocytes of both the in-vitro and in-vivo experiments by robotic ABI PRISM, Applied biosystem 6100 Nucleic Acid Prep Station. To avoid genomic DNA contamination samples were treated with DNase I (Roche). The quality and integrity of the total RNA preparation was confirmed using a NanoDrop 2000c Spectrophotometer (Thermo Scientific).
(§2) Quantitative RT-PCR of Pre-rRNA: Complementary DNA was obtained from the extracted RNA by the High capacity cDNA reverse transcription kit (Applied Biosystems, CA, USA) following manufacturer's instructions. To confirm the role of POL1 pathway suppression by POL1-Inhibitors, the expression level of pre-rRNA transcript, a key gene of the RNA polymerase I pathway, was evaluated by Q-RT-PCR (n=3 per group). […] (SEQ ID NO: 70) with a quantification probe (Roche, Probe ID #1, cat. no. 04684974001). […]

[2] = Toxicity (LD50, survival) in the EAE model, continuous administration; assay type: in vivo; conditions: C57BL/6J, mouse, in vivo, oral; EAE prevention model, continuous administration
Procedure: (§3) The animals were evaluated for signs of acute toxicity and survival during the entire administration period in the EAE model.
(§4) The therapeutic index (LD50/ED50), which is also referred to herein as Safety Margin (SM), was then determined based on the EAE model.

C57BL/6J mice = assay: as above; assay type: in vivo
Procedure: as §3, §4

pre-rRNA [3] = assay: Q-RT-PCR of pre-rRNA in splenocytes of treated EAE mice; assay type: in vivo; conditions: 12.5 mg/Kg, 17 days following immunization
Procedure: as §1
as §2, with “group). All PCR reactions were performed on a Light Cycler 480 instrument (Roche Diagnostic). The pre-rRNA, specific primers used were Forward: […] (SEQ ID NO: 69) and Reverse:” for “group).”

Pol I = assay: Cell-free Pol I transcription assay; assay type: biochemical, human; conditions: 200 nM
Procedure: Cell-free Pol I transcription assay was performed according to Drygin et al. (2010). Briefly, a reaction mixture consisting of 8 units of HeLa scribe nuclear extract (Promega) in transcription buffer and MgCl2 (4 mM) was combined with POL1-Inhibitor (200 nM) and […] a-amanitin (Sigma) for 20 minutes at ambient temperature. Following, 10 ng DNA template (GENEWIZ, Inc.; http://www(dot)genewiz(dot)com(dot)cn) corresponding to the (−160/+350) region on human rDNA was added and the reaction was incubated for 5 minutes at ambient temperature. Transcription was initiated by adding rNTPs mix to a final concentration of 1 mM and the reaction was incubated for 1 hour at 30° C. Afterward, DNase I (Ambion kit) was added and the reaction was further incubated for 25 minutes at 37° C. DNase activity was terminated with adding an inactivation solution according the manufacturer's protocol. The samples were then subjected for RNA isolation (following the same procedure described in Example 3 hereinabove). Pellets of RNA were re-suspended in DEPC-treated double distilled water and subjected for reverse transcription by a High capacity kit (Applied Biosystems). The resultant transcripts were analyzed by qRT-PCR in a Light cycler 480 system using primer pairs (Sigma) and probe for real-time PCR. […]

Solubility in mQ water = assay type: physicochemical; conditions: 50 mg in 0.5 mL mQ water, room temperature
Procedure: The solubility of Compounds 1 and 10 was determined by dissolving 50 mg of the tested compound in 0.5 mL of mQ water, at room temperature.

splenocytes = assay: Viability, proliferation and apoptosis of MOG 35-55 incubated splenocytes from immunized mice (XTT, BrdU, flow cytometry); assay type: cell-based; conditions: splenocytes 14 days post immunization, 72 h MOG 35-55, vs vehicle
Procedure: In addition, viability, proliferation and apoptosis of splenocytes isolated from mice 14 days post immunization and incubated for 72 h with MOG 35-55 were assessed by XTT, BrdU and flow cytometry (Annexin V and propidium iodide double staining) assays, respectively.

[4] = EAE mice, 30 mg/kg every alternate day until disease onset

## Cc1cnc(CNC(=O)c2/c(=N/c3ccccc3)c3ccc(N4CCCN(C)CC4)nc3n3c2sc2ccccc23)cn1 [Compound 10, (E)-2-(4-methyl-1,4-diazepan-1-yl)-N-((5-methylpyrazin-2-yl)methyl)-5-(phenylimino)-5H-benzo[4,5]thiazolo[3,2-a][1,8]naphthyridine-6-carboxamide]
Mouse splenocytes
  suppression of splenocyte proliferation compared to Compound 1 (XTT): improved performance
Mouse splenocytes; Splenocyte, mouse splenocytes, 25-400 nM
  IC50: 40 nM
pre-rRNA [1]
  pre-rRNA mRNA levels expressed by splenocytes: significant dose dependent decrease
[2]
  LD50: 30 mg/kg
C57BL/6J mice; C57BL/6J, mouse, in vivo, 28 days
  survival: 100%
C57BL/6J mice; [4]
  behavioral changes: No behavioral changes
  survival: No effect on survival
  tolerability: well tolerated
C57BL/6J mice; all treated groups, EAE model, alternate days
  signs of toxicity: without apparent signs of toxicity
pre-rRNA [3]
  decrease in pre-rRNA mRNA levels compared to vehicle: 5.9 folds
Pol I
  inhibition of Pol I transcription from the pre-rRNA promoter: about 40%
Solubility in mQ water
  solubility: immediately dissolved in the aqueous solution
splenocytes
  apoptosis (Annexin V and propidium iodide): induced apoptosis in CD4+ lymphocytes
  cell proliferation (BrdU): suppressed cell proliferation
  viability (XTT): reduced viability
